IC50 data for 74 compounds are collected here from PubChem BioAssay AID1949 (Southern Research Institute, 2009).

As a reminder, the IC50 is the concentration that gives 50% inhibition.

In brackets after ≈: the same amount, converted by molar mass. Records with an inconclusive call do not appear. Activity calls are given as the source filed them. How the calls were made is not given here.

This test has as its system M. tuberculosis H37Rv growth inhibition. Put plainly: Mycobacterium tuberculosis H37Rv growth inhibition, cell based, confirmatory dose response (AID 1949).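 Further: bacteria grown 7 days with compound before Alamar blue readout.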

Take `COc1ccc(Br)cc1C(=O)Nc1ccc(N2CCN(C(=O)C(C)C)CC2)c(Cl)c1`: the IC50 is 5.08 µg/mL (≈ 10.3 µM).

Turning to `CCOc1ccc(C(=O)NC(=S)Nc2ccc(CN3CCOCC3)cc2)cc1Cl`, the IC50 is 15.7 µg/mL (≈ 36.2 µM). For `O=C(Nc1ccc(-c2cc3ccccc3oc2=O)cc1)c1cc(-n2cnnc2)ccc1Cl`, the IC50 is 6.92 µg/mL (≈ 15.6 µM). `Cc1cc(NC(=O)CSc2nnc(-c3ccccc3Cl)o2)no1`: the IC50 is 2.43 µg/mL (≈ 6.93 µM).

On to `CNc1nc(N2CCc3ccccc32)ncc1F`, for which the IC50 is 0.91 µg/mL (≈ 3.73 µM).

Turning to `COc1ccc(C(=O)O/N=C(\N)Cc2ccc(Cl)c(Cl)c2)cc1OC`, the IC50 is 9.32 µg/mL (≈ 24.3 µM). As for `COc1cccc(C(=O)OCc2cccc(C(=O)Oc3ccccc3)c2)c1`, the IC50 is 9.15 µg/mL (≈ 25.2 µM).

On to `Cc1cc(Nc2ccc(Cl)cc2)nc(NCc2ccccc2)n1`, for which the IC50 was 1.34 µg/mL (≈ 4.13 µM).

For `CC1=CC(C)(C)N2C(=O)C(=O)c3cc(OC(=O)c4ccccc4)cc1c32`, the IC50 was > 50 µg/mL (inactive).

For `CCOC(=O)c1c(NC(=S)NC(C)c2ccncc2)sc2c1CCCCCC2` (centres undefined), the IC50 is 32.8 µg/mL (≈ 78.6 µM). With `Cc1ccc(-c2csc(Nc3ccc(C(=O)O)c(O)c3)n2)cc1`, the half-inhibitory concentration (IC50) was 1.46 µg/mL (≈ 4.47 µM). `COC(=O)c1ccc(OCC(O)CN2CCN(c3cc(Cl)ccc3C)CC2)cc1` (centres undefined): the IC50 is 5.13 µg/mL (≈ 12.2 µM). With `COc1ccc2c(c1)CC1=C2CCC2(C)C1=CCC2OC(C)=O` (centres undefined), the half-inhibitory concentration (IC50) was 21.6 µg/mL (≈ 69.8 µM). Take `COCCNc1nc(-c2ccc(Cl)cc2)nc2ccccc12`: the IC50 is > 50 µg/mL (inactive). For `CCCCc1ccc2nc(NC(=O)c3cccs3)sc2c1` the value was 6.52 µg/mL (≈ 20.6 µM). As for `CCC(C)(C)c1ccc(OCCCn2ccnc2)cc1`, the IC50 was 1.92 µg/mL (≈ 7.05 µM). For `Cc1ccccc1Nc1nc(NCc2ccco2)c2ccccc2n1`, the IC50 was 2.64 µg/mL (≈ 7.99 µM).

In the case of `CCCC1(O)CC(c2ccc(Cl)cc2)NC(c2ccc(Cl)cc2)C1C` (centres undefined), the IC50 is 2.34 µg/mL (≈ 6.18 µM). As for `CCc1ccc(S(=O)(=O)Nc2ccc(I)cc2)cc1`, the figure is 11.7 µg/mL (≈ 30.1 µM); as for `COc1cc(C(=O)Nc2nc3c(s2)CCCC3)c(Br)c(OC)c1OC`, 2.8 µg/mL (≈ 6.55 µM).

For the compound `C=CCn1c(-c2cccs2)nc2ccccc21`, the IC50 was 1.86 µg/mL (≈ 7.74 µM). For `CCOC(=O)COc1ccc2c3c(c(=O)oc2c1C)CCC3` the value was > 50 µg/mL (inactive); for `COc1cc(C(=O)Oc2ccc3c(c2)CCCC3)cc(OC)c1OC`, > 50 µg/mL (inactive). On to `O=[N+]([O-])c1cccc(NC(=S)Nc2ccc(Cl)c(Cl)c2)c1`, for which the IC50 was 0.3 µg/mL (≈ 0.877 µM). As for `O=C(Oc1c(Cl)cc(Cl)c2cccnc12)c1ccc([N+](=O)[O-])cc1`, the figure is 0.88 µg/mL (≈ 2.42 µM); as for `CC(C)(C)c1ccc(C(=O)Nc2nc3ccccc3[nH]2)cc1`, < 0.1 µg/mL. With `CC(=O)Nc1ccc2cccc(O)c2n1`, the IC50 is 0.96 µg/mL (≈ 4.75 µM). For the compound `COC(=O)c1ccc(COC(=O)c2ccc(Cl)cc2)cc1`, the IC50 was > 50 µg/mL (inactive).

Take `Cc1cc(Cl)ccc1N1CCN(CCNC(=O)Nc2ccc(F)cc2)CC1`: the IC50 was > 50 µg/mL (inactive). Consider `Cc1ccc(NC(=O)c2cc([N+](=O)[O-])ccc2O)cc1`, for which the IC50 was 14.3 µg/mL (≈ 52.4 µM). Take `COc1ccc(C(=S)N2CC(C)OC(C)C2)c(OC)c1` (centres undefined): the IC50 was > 50 µg/mL (inactive). Regarding `Cc1ccc(N2CCN(CC(O)COc3ccc4ccccc4c3)CC2)c(C)c1` (centres undefined), the IC50 was 9.31 µg/mL (≈ 23.8 µM).

For the compound `O=C(Oc1c(Cl)cc(Cl)c2cccnc12)c1ccccc1[N+](=O)[O-]`, the IC50 is 0.2 µg/mL (≈ 0.551 µM). On to `CC(=O)Oc1ccccc1C(=O)OCc1ccc2ccccc2c1`, for which the IC50 was 11.7 µg/mL (≈ 36.5 µM). `COc1ccc(C(=O)/C=C/Nc2cc(Cl)ccc2O)cc1OC`: the IC50 is 4.6 µg/mL (≈ 13.8 µM). As to `CC(CCc1ccccc1)NC(=O)c1ccc(Cl)cc1[N+](=O)[O-]` (centres undefined), the IC50 is 3.7 µg/mL (≈ 11.1 µM). On to `COc1ccc(-c2csc(-c3ccc(OC)c(OC)c3)n2)cc1C`, for which the IC50 is < 0.1 µg/mL. With `COc1ccc(C(=O)C(CN2CCCCC2)c2ccccc2)cc1` (centres undefined), the IC50 is 3.15 µg/mL (≈ 9.74 µM). For the compound `CC(C)OC(=O)c1c2c(n3ccccc13)C(=O)c1ccccc1C2=O`, the IC50 is 11.4 µg/mL (≈ 34.2 µM). As to `Fc1ccc(C2=NN(c3ccc(Cl)cc3)C(c3cccs3)C2)cc1` (centres undefined), the IC50 is 5.63 µg/mL (≈ 15.8 µM).

Regarding `C=CCCCCCCCCC(=O)Nc1ccccc1C`, the concentration for half-maximal inhibition (IC50) was 8.62 µg/mL (≈ 31.5 µM). As for `CCN(CC)c1ccc(NC(=S)NCC(C)C)cc1`, the IC50 is 5.43 µg/mL (≈ 19.4 µM). As for `O=C(CCc1ccccc1)NC(=S)Nc1ccc(N2CCCCC2)cc1`, the IC50 was 0.27 µg/mL (≈ 0.735 µM). Turning to `Cc1ccc(-c2nnc(SC3=CS(=O)(=O)c4ccccc43)o2)cc1`, the IC50 was > 50 µg/mL (inactive).

For the compound `CCOc1ccc(-c2[nH]ncc2-c2ccccc2)c(O)c1C`, the IC50 was 4.39 µg/mL (≈ 14.9 µM).

Turning to `Cc1ccc2oc(=O)n(CCCOc3ccc(Cl)cc3)c2c1`, the IC50 was 2.98 µg/mL (≈ 9.38 µM). On to `CCOC(=O)c1c(NC(C)=O)sc2c(OCC(O)CN(CC)CC)c(Br)ccc12` (centres undefined), for which the IC50 is 4.61 µg/mL (≈ 9.46 µM). For `CCC(=O)Oc1ccc(C(=O)Nc2cc3oc4ccccc4c3cc2OC)cc1` the value was 1.46 µg/mL (≈ 3.75 µM); for `CCOC(=O)c1ccc(NC(=S)Nc2ccc(Oc3ccccc3)cc2)cc1`, 0.39 µg/mL (≈ 0.994 µM). Consider `Cc1cc(OCC(=O)NC2C3CC4CC(C3)CC2C4)cc(C)c1Br` (centres undefined), for which the IC50 is 1.45 µg/mL (≈ 3.7 µM). As for `CC(C)OC(=O)COc1ccc(-c2ccccc2)cc1`, the figure is > 50 µg/mL (inactive); as for `COC(=O)COc1ccc(-c2ccc(C)cc2)cc1`, 0.22 µg/mL (≈ 0.858 µM).

As to `Cc1ccc(NC(=O)Nc2ccc([N+](=O)[O-])cc2)cc1F`, the IC50 is 13.2 µg/mL (≈ 45.6 µM).

In the case of `O=C(Nc1ccc(Cl)cc1)NC1CC2CCC1C2` (centres undefined), the IC50 was 0.72 µg/mL (≈ 2.72 µM). In the case of `Cc1cc(C)cc(C(=O)Nc2ccc(N3CCN(C(=O)c4cccs4)CC3)c(Cl)c2)c1`, the IC50 is 15.5 µg/mL (≈ 34.2 µM). Turning to `CCCCCn1c(NCc2ccc(N(C)C)cc2)nc2ccccc21`, the IC50 is 2.9 µg/mL (≈ 8.62 µM). For `CCN(CC)CC(O)Cn1c(C)c(-c2ccccc2)c2cc([N+](=O)[O-])ccc21` (centres undefined) the value was 29.4 µg/mL (≈ 77 µM). With `O=C(Nc1ccc(N2CCN(Cc3ccccc3F)CC2)cc1)c1ccc([N+](=O)[O-])o1`, the IC50 was 0.28 µg/mL (≈ 0.66 µM). Turning to `COC(C)(C)C#CC(=O)c1cccc2ccccc12`, the IC50 is 2.78 µg/mL (≈ 11 µM). `COc1cc(SC)ccc1C(=O)NCCOc1ccc(F)cc1`: the IC50 is 12.1 µg/mL (≈ 36.2 µM).

In the case of `Cc1ccc(Cl)cc1N1CCN(CC(O)COc2ccc3ccccc3c2)CC1` (centres undefined), the half-maximal inhibitory concentration (IC50) is 4.13 µg/mL (≈ 10.1 µM). Take `COC(=O)COc1ccc(CSCC(=O)Nc2ccc3ccccc3c2)cc1`: the IC50 is 0.44 µg/mL (≈ 1.11 µM).

`COc1cccc(N2C(=O)c3cccc4cc([N+](=O)[O-])cc(c34)C2=O)c1`: the IC50 was 11 µg/mL (≈ 31.7 µM).

Turning to `Cc1nc2ccc(C(=O)OCc3nnc(-c4ccccc4)o3)cc2nc1C`, the IC50 is 2.98 µg/mL (≈ 8.27 µM). `Clc1ccc2[nH]c3c(c2c1)CCc1cn[nH]c1-3`: the IC50 is > 50 µg/mL (inactive). For `CC(C)(C)c1ccc(OCCCNCc2ccccc2)cc1`, the IC50 was 4.84 µg/mL (≈ 16.3 µM).

Consider `CCC1CCCCN1C(=S)NC(=O)c1ccc(F)cc1` (centres undefined), for which the IC50 is 0.73 µg/mL (≈ 2.48 µM). For the compound `c1ccc2c(N3CCCCC3)nc(N3CCCC3)nc2c1`, the IC50 is 40.4 µg/mL (≈ 143 µM).

Turning to `Cc1ccc(C(C)C)cc1OCCCCn1ccnc1`, the IC50 was 1.88 µg/mL (≈ 6.9 µM).

Regarding `CCc1nc2sc(C(=O)NCc3ccc(F)cc3)c(N)c2c(C(F)(F)F)c1C`, the IC50 is 2.61 µg/mL (≈ 6.34 µM).

For `Cc1cccc(Nc2nc(N)nc(CN3CCN(c4cccc(Cl)c4)CC3)n2)c1`, the IC50 is 0.39 µg/mL (≈ 0.951 µM). For `C=CCc1cc(/C=C/[N+](=O)[O-])cc(OCC)c1O` the value was 5.69 µg/mL (≈ 22.8 µM); for `CCCn1c(CNc2ccccc2O)nc2ccccc21`, 0.34 µg/mL (≈ 1.21 µM); for `CCOc1ccc(Nc2nc(N)c(C(=O)C(C)(C)C)s2)cc1`, 5.96 µg/mL (≈ 18.7 µM).
